Data: US10709704B2, “Treating neural disease with tyrosine kinase inhibitors” (GEORGETOWN UNIVERSITY, priority 2012, dated 2020)

Assays:
[1] = system: Aβ1-42 plaques and intracellular Aβ1-42; assay: Plaque and intracellular Aβ1-42 staining, lentiviral Aβ1-42 parkin−/− mice; format: in vivo, mouse
Method: Immunohistochemistry was performed on 20 micron-thick 4% paraformaldehyde (PFA) fixed cortical brain sections. Aβ1-42 was probed (1:200) with rabbit polyclonal specific anti-Aβ1-42 antibody (Zymed) that recognizes a.a.1-42, and (1:200) mouse monoclonal antibody (4G8) that recognizes amino acid 17-24 (Covance) and counterstained with DAPI. Parkin was immunoprobed (1:200) with mouse anti-parkin (PRK8) antibody that recognizes amino acid 399-465 (Signet Labs, Dedham, Mass.) and rabbit polyclonal (1:200) anti-parkin (AB5112) antibody that recognizes amino acid 305-622 (Millipore) and counterstained with DAPI. Mouse monoclonal (6E10) antibody (1:100) with DAB were used (Covance) and thioflavin-S was performed according to manufacturer's instructions (Sigma).
Stereological methods were applied by a blinded investigator using unbiased stereology analysis (Stereologer, Systems Planning and Analysis, Chester, Md.) as described in (20,36).

[2] = system: lentiviral Aβ1-42-injected wild type mice; assay: Morris water maze, lentiviral Aβ1-42 wild type mice; format: in vivo, mouse; conditions: Nilotinib
Method: (§1) All animals were pre-trained (trials) to swim for 90 seconds in a water maze containing a platform submerged in water (invisible) for 4 consecutive days once a day. The pretraining trials “teach” the swimming animals that to “escape”, they must find the hidden platform, and stay on it. The water maze “test” was performed on day 5, (40), when the platform was removed and mice have to swim and find it, thus assessing acquisition and retention. All parameters, including distance travelled to reach platform, speed to get to the platform, latency or time spent on platform, and platform entry were digitally recorded on a computer and analyzed by a blind investigator.
(§2) The Morris water maze test was performed after 4 days of training trials in which the platform was placed in the SE corner and mice were initially placed in the NW corner of the pool.

[3] = system: lentiviral Aβ1-42-injected parkin−/− mice; assay: Morris water maze, lentiviral Aβ1-42 parkin−/− mice; format: in vivo, mouse
Method: as §1, §2

GFP-tagged TDP-43 = assay: Distribution of GFP-tagged TDP-43 in M17 cells; format: cell-based, human; set-up: distribution of GFP-tagged TDP-43 / translocation of GFP-tagged TDP-43 with Nilotinib or Bosutinib: unit of the concentration uncertain; conditions: Nilotinib (10 µM) or Bosutinib (5 µM) for additional 24 hrs
Method: Human neuroblastoma M17 cells (seeding density 2×10^5 cells) were grown in 24 well dishes (Falcon) to 70% confluence in Dulbecco's Modified Eagle Medium (DMEM; Invitrogen) plus 10% (v/v) heat-inactivated fetal bovine serum (Invitrogen), penicillin/streptomycin, and 2 mM L-glutamine at 37° C. and 5% CO2, washed twice in phosphate-buffered saline (PBS). Transient transfection was performed with 3 μg parkin cDNA or 3 μg TDP-43 cDNA, or 3 μg LacZ cDNA. Cells were treated with 5 μM tubacin for 24 hours and DAPI stained in 12 well dishes. Cells were harvested 24 hours after transfection. Transfection was performed in DMEM without serum using Lipofectamine 2000 (Invitrogen) according to the manufacturer's protocol. […] Western blot was performed on NuPAGE 4-12% Bis-Tris gel (Invitrogen). Protein estimation was performed using the microscale BioRad protein assay (BioRad Laboratories Inc, Hercules, Calif., USA).
To ascertain that both parkin and HDAC6 are required for TDP-43 translocation, GFP-tagged TDP-43 was expressed in M17 neuroblastoma cells in the presence of wild type or loss-of-function mutant (T240R) parkin, and treated with 5 μM selective HDAC6 inhibitor for 24 hours.
The following data support these conclusions.

[4] = system: autophagic vacuoles and lysosomes; assay: Subcellular fractionation (AV-10, AV-20, lysosome) and ELISA, Tg-APP mice; format: in vivo, mouse
Method: Histograms show Aβ1-42 in subcellular fractions, including autophagic vacuole-10 (AV-10; phagophores+autophagosomes), AV-20 (autophagosomes) and lysosomes. […] Brain tissues were fractionated to isolate AVs and human specific ELISA was performed to determine protein contents. N=5 animals per treatment.
(§3) 0.5 g of Frozen human or animal brains were homogenized at low speed (Cole-Palmer homogenizer, LabGen 7, 115 Vac) in 1×STEN buffer and centrifuged at 1,000 g for 10 minutes to isolate the supernatant from the pellet. The pellet was re-suspended in 1×STEN buffer and centrifuged once to increase the recovery of lysosomes. The pooled supernatants were then centrifuged at 100,000 rpm for 1 hour at 4° C. to extract the pellet containing autophagic vacuoles (AVs) and lysosomes. The pellet was then re-suspended in 10 ml (0.33 g/ml) 50% Metrizamide and 10 ml in cellulose nitrate tubes. A discontinuous Metrizamide gradient was constructed in layers from bottom to top as follows: 6 ml of pellet suspension, 10 ml of 26%; 5 ml of 24%; 5 ml of 20%; and 5 ml of 10% Metrizamide (Marzella et al., 1982). After centrifugation at 10,000 rpm for 1 hour at 4° C., the fraction floating on the 10% layer (Lysosome) and the fractions banding at the 24%/20% (AV 20) and the 20%/10% (AV10) Metrizamide inter-phases were collected by a syringe and examined.
as §3, with “Animal” for “0.5 g of Frozen human or animal”, “100.000” for “100,000”, “[…]” for “4°”, “Metrizamide.” for “Metrizamide (Marzella et al., 1982).”, “100,000” for “10,000”, “40 C,” for “4° C.,”

[5] = IP 10 mg/kg Nilotinib or 5 mg/Kg Bosutinib daily 3 weeks

Cc1cn(-c2cc(NC(=O)c3ccc(C)c(Nc4nccc(-c5cccnc5)n4)c3)cc(C(F)(F)F)c2)cn1 [Nilotinib]
plaque size ([1]; Aβ1-42 parkin−/− mice + Nilotinib (DMSO 85 μm)): 79 μm | Aβ1-42 positive cells (stereological counting) ([1]; Aβ1-42 parkin−/− mice + Nilotinib (DMSO N=14566)): 13250 | plaque load ([1]; Aβ1-42 parkin−/− mice, Nilotinib): did not reduce plaque load | time spent in NW quadrant ([2]; Aβ1-42-injected wild type mice): back to the level observed in control mice | improved time spent in SE compared to DMSO ([2]; Aβ1-42 wild type mice): 61% | improved time spent in SE compared to control ([2]; Aβ1-42 wild type mice): 26% | number of entries into SE (platform entry) ([2]; Aβ1-42 wild type mice): reversed the number of entries back to control | decrease in distance travelled compared to control and wild type ([3]; Aβ1-42 parkin−/− mice with Nilotinib (first of '±Nilotinib ... respectively')): 80% | time in NW quadrant ([3]; Aβ1-42 parkin−/− mice with and without Nilotinib): remained significantly more in the NW quadrant | distribution of GFP-tagged TDP-43 (GFP-tagged TDP-43): translocation of GFP-tagged TDP-43 from nucleus (A) into the cytosol | autophagic clearance of Aβ1-40 (deposition in AV-20 and lysosome) [4, 5]: enhances autophagic clearance | autophagic clearance of Aβ1-42 (deposition in AV-20 and lysosome) [4, 5]: enhances autophagic clearance | autophagic clearance of p-Tau ser 396 (deposition in AV-20 and lysosome) [4, 5]: enhances autophagic clearance | autophagic clearance of parkin (deposition in AV-20 and lysosome) ([4]; IP 10 mg/kg Nilotinib or 5 mg/kg Bosutinib daily 3 weeks): enhances autophagic clearance
